Reference: the supplement of paper PMC11451515

Experiments:
Conditions in all cases: 48 h
P12-Ichikawa [1] = assay: cell viability relative to DMSO control; higher = less cytotoxic
In short: (§1)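 In 1536-well plates, 5 μl of leukemia cells were seeded per well: 500 cells/well for NOMO1 or SEM and 1000 cells/well for P12-Ichikawa. Each line had first been adapted for at least four passages in each medium. Library compounds in DMSO were pin-dosed at 11 threefold concentrations between 47 μM and 0.79 nM, and CellTiter-Glo One luminescence was read after 48 h at 37°C. Viability is a per-plate percentage relative to DMSO wells, with cell-free wells as background.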

SEM cells [2] = assay: as above
In short: as §1

NOMO1 [3] = assay: as above
In short: as §1

P12-Ichikawa [4] = assay: AUC of viability dose-response curve (% viability x log10 dose units); higher = less sensitive
In short: (§2)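 Medium-adapted leukemia cells in 1536-well plates, at 500 or 1000 cells/well, were incubated for 48 h at 37°C with library compounds in DMSO at 11 threefold doses from 47 μM to 0.79 nM. CellTiter-Glo One luminescence normalised per plate to DMSO and cell-free wells was fitted with a four-parameter log-logistic model over log10 doses. Area under the curve was integrated from this fit by trapezoidal rule, with curves beyond full viability scaled and failed quality-control curves removed.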

SEM cells [5] = assay: as above
In short: as §2

NOMO1 [6] = assay: as above
In short: as §2

CC1(C)CCC(C)(C)c2cc(NC(=O)c3ccc(C(=O)O)cc3)ccc21
cell viability [%]
Conditions	NOMO1 [3]	P12-Ichikawa [1]	SEM cells [2]
HPLM + 10% dialyzed FBS, 0.000781 µM	91.4	73.7	88.1
HPLM + 10% dialyzed FBS, 0.00234 µM	91	116	107
HPLM + 10% dialyzed FBS, 0.00702 µM	98.5	101	98.5
HPLM + 10% dialyzed FBS, 0.0211 µM	111	102	107
HPLM + 10% dialyzed FBS, 0.0632 µM	101	107	115
HPLM + 10% dialyzed FBS, 0.19 µM	100	106	101
HPLM + 10% dialyzed FBS, 0.569 µM	98.1	105	124
HPLM + 10% dialyzed FBS, 1.71 µM	109	104	110
HPLM + 10% dialyzed FBS, 5.12 µM	79.9	106	104
HPLM + 10% dialyzed FBS, 15.4 µM	92.9	101	120
HPLM + 10% dialyzed FBS, 46.1 µM	60.7	96.4	97.4
RPMI 5 mM glucose + 10% FBS, 0.000781 µM	85.7	102	100
RPMI 5 mM glucose + 10% FBS, 0.00234 µM	90.6	103	93.3
RPMI 5 mM glucose + 10% FBS, 0.00702 µM	89.8	93.9	111
RPMI 5 mM glucose + 10% FBS, 0.0211 µM	97.5	96.2	115
RPMI 5 mM glucose + 10% FBS, 0.0632 µM	95.4	103	119
RPMI 5 mM glucose + 10% FBS, 0.19 µM	97.3	97.8	111
RPMI 5 mM glucose + 10% FBS, 0.569 µM	99.8	104	113
RPMI 5 mM glucose + 10% FBS, 1.71 µM	101	109	111
RPMI 5 mM glucose + 10% FBS, 5.12 µM	98.5	101	116
RPMI 5 mM glucose + 10% FBS, 15.4 µM	94.4	98.9	123
RPMI 5 mM glucose + 10% FBS, 46.1 µM	76.1	88.5	105
RPMI 5 mM glucose + 10% dialyzed FBS, 0.000781 µM	99.8	96.2	90.9
RPMI 5 mM glucose + 10% dialyzed FBS, 0.00234 µM	91.9	104	92.4
RPMI 5 mM glucose + 10% dialyzed FBS, 0.00702 µM	91.3	98.4	84.7
RPMI 5 mM glucose + 10% dialyzed FBS, 0.0211 µM	89.8	108	95.6
RPMI 5 mM glucose + 10% dialyzed FBS, 0.0632 µM	97.7	110	91.9
RPMI 5 mM glucose + 10% dialyzed FBS, 0.19 µM	90.2	105	93
RPMI 5 mM glucose + 10% dialyzed FBS, 0.569 µM	95.3	116	103
RPMI 5 mM glucose + 10% dialyzed FBS, 1.71 µM	93	108	94.6
RPMI 5 mM glucose + 10% dialyzed FBS, 5.12 µM	88.2	107	105
RPMI 5 mM glucose + 10% dialyzed FBS, 15.4 µM	84.5	102	101
RPMI 5 mM glucose + 10% dialyzed FBS, 46.1 µM	75.9	79.6	87.7

AUC of viability dose-response curve
Conditions	NOMO1 [6]	P12-Ichikawa [4]	SEM cells [5]
HPLM + 10% dialyzed FBS	455	463	464
RPMI 5 mM glucose + 10% FBS	445	470	465
RPMI 5 mM glucose + 10% dialyzed FBS	435	469	451
